What was measured:
[1] = tested on: systolic blood pressure of spontaneously hypertonic rats; assay: systolic blood pressure of spontaneously hypertonic rats after oral administration; type: in vivo, rat; conditions: for systolic blood pressure, subsequent value / systolic blood pressure, Δ / systolic blood pressure, Δ %: 2 h
Description: (§1) The blood pressure-lowering action of the compound THCN according to the present invention and of DHCN was investigated on spontaneously hypertonic rats after oral administration and compared with that of ajmalicine. The method thereby used for the measurement of the systolic blood pressure and of the heart rate on rats is described in Arzneimittel-Forschung, 18, 1285-1287/1968. Before commencement of the experiments, the animals were familiarised with the measurement procedure.
(§2) In a first series of experiments, the systolic blood pressure and the heart rate were investigated 2 hours after the oral administration of the test substances in the form of their hydrochlorides. The substances were suspended in 0.2% agar and administered in a volume of 10 ml./kg. It follows therefrom that all three substances lower the blood pressure in a dosage-dependent manner.

[2] = tested on: heart rate of spontaneously hypertonic rats; assay: heart rate of spontaneously hypertonic rats after oral administration; type: in vivo, rat; conditions: 2 h
Description: as §1, §2

[3] = tested on: systolic blood pressure of spontaneously hypertonic rats; assay: chronological course of blood pressure decrease in spontaneously hypertonic rats; type: in vivo, rat
Description: as §1
(§3) In a further series of experiments, the chronological course of the blood pressure lowering was investigated. For this purpose, spontaneously hypertonic rats were treated with 10 mg./kg. DHCN and with 5 or 10 mg./kg. THCN per os and in each case 6 or 12 animals of the treated group were measured at definite times after the treatment.

[4] = tested on: heart rate of spontaneously hypertonic rats; assay: chronological course of heart rate of spontaneously hypertonic rats; type: in vivo, rat; design: heart rate at time t: unit not given here
Description: as §1, §3

CHCl3 arrhythmia = assay: inhibition of CHCl3 arrhythmia on mice, i.p.; type: in vivo
Description: (§4) The antiarrhythmic effectiveness of DHCN and THCN was investigated on mice and rats.

[5] = tested on: aconitine-induced arrythmias; assay: protection against aconitine-induced arrhythmias in urethane-narcotised rats, i.v.; type: in vivo; conditions: 2 to 5 mg/kg (THCN)
Description: as §4

[6] = acute toxicity, LD50 (Litchfield and Wilcoxon) on mice; type: in vivo; conditions: mouse, in vivo, mice
Description: (§5) The toxicity of the compounds according to the present invention can be seen from the LD50 values given in the following Table 8 for intravenous, intraperitoneal and oral administration.

mice = assay: as above; type: in vivo; conditions: i.v., i.p. and oral LD50, mice
Description: as §5

[7] = tested on: stereotypy brought about by apomorphine; assay: potentiation of apomorphine stereotypy in mice; type: in vivo; conditions: oral, same dosage range (10 to 20 mg/kg)
[8] = tested on: heart rate of spontaneously hypertonic rats; assay: chronological course of heart rate of spontaneously hypertonic rats; type: in vivo, rat; design: unit not given here; conditions: 20 mg/kg, 4 h.
circulatory disturbances = conditions: known therapy of circulatory disturbances; cited from earlier work
[9] = tested on: blood pressure, vessels, central nervous system; assay: general pharmacological action (statement in words); conditions: in vivo
[10] = 18 mg/kg p.o., ajmalicine hydrochloride
[11] = 40 mg/kg p.o., ajmalicine hydrochloride
[12] = 56 mg/kg p.o., ajmalicine hydrochloride
[13] = 86 mg/kg p.o., ajmalicine hydrochloride
[14] = 100 mg/kg p.o., ajmalicine hydrochloride
[15] = 4 mg/kg p.o., dihydrocorynantheine
[16] = 8.6 mg/kg p.o., dihydrocorynantheine
[17] = 18 mg/kg p.o., dihydrocorynantheine
[18] = 32 mg/kg p.o., dihydrocorynantheine
[19] = 56 mg/kg p.o., dihydrocorynantheine

In the case of `COC(=O)C1=CO[C@@H](C)[C@H]2CN3CCc4c([nH]c5ccccc45)[C@@H]3C[C@H]12` [ajmalicine, reference compound], the “systolic blood pressure, subsequent value” [1, 10] is reported as 198 ± 7 mm Hg, the “systolic blood pressure, Δ” value [1, 10] is reported as -12 ± 2 mm Hg and the “systolic blood pressure, Δ %” value [1, 10] is reported as -5.6 ± 1%. For the same compound, the “systolic blood pressure, subsequent value” [1, 11] was 173 ± 7 mm Hg, the “systolic blood pressure, Δ” value [1, 11] was -25 ± 6 mm Hg and the “systolic blood pressure, Δ %” value [1, 11] was -12.4 ± 3%. For the same compound, the “systolic blood pressure, subsequent value” [1, 12] was 172 ± 4 mm Hg, the “systolic blood pressure, Δ” value [1, 12] was -37 ± 5 mm Hg and the “systolic blood pressure, Δ %” value [1, 12] was -17.5 ± 2.1%. For the same compound, the “maximum blood pressure lowering” value ([1]; 56 mg/kg, not exceeded with dosages up to 100 mg/kg) was “about 18%”, the “systolic blood pressure, subsequent value” [1, 13] was 165 ± 11 mm Hg and the “systolic blood pressure, Δ” value [1, 13] was -36 ± 12 mm Hg. The “systolic blood pressure, Δ %” value [1, 13] was -17.7 ± 6.1%, the “systolic blood pressure, subsequent value” [1, 14] was 165 ± 5 mm Hg and the “systolic blood pressure, Δ” value [1, 14] was -33 ± 9 mm Hg. The “systolic blood pressure, Δ %” value [1, 14] was -16.3 ± 4%, the “heart rate, subsequent value” [2, 10] was 492 ± 27 beats/min and the “heart rate, Δ” value [2, 10] was 30 ± 15 beats/min. The “heart rate, Δ %” value [2, 10] was 7.3 ± 4.3%, the “heart rate, subsequent value” [2, 11] was 513 ± 11 beats/min and the “heart rate, Δ” value [2, 11] was 51 ± 19 beats/min. The “heart rate, Δ %” value [2, 11] was 11.9 ± 4.4%, the “heart rate, subsequent value” [2, 12] was 522 ± 9 beats/min and the “heart rate, Δ” value [2, 12] was 4 beats/min. The “heart rate, Δ %” value [2, 12] was 0.8 ± 1.6%, the “heart rate, subsequent value” [2, 13] was 511 ± 4 beats/min and the “heart rate, Δ” value [2, 13] was 14 ± 2 beats/min. For the same compound, the “heart rate, Δ %” value [2, 13] was 2.9 ± 2.0%, the “heart rate, subsequent value” [2, 14] was 515 ± 9 beats/min and the “heart rate, Δ” value [2, 14] was 26 ± 11 beats/min. For the same compound, the “heart rate, Δ %” value [2, 14] was 5.3%, the “percentage decrease of blood pressure” value ([3]; 20 mg/kg, 10 min.) was 9.5% and the “percentage decrease of blood pressure” value ([3]; 20 mg/kg, 20 min.) was 13.0%. The “percentage decrease of blood pressure” value ([3]; 20 mg/kg, 40 min.) was 14.2%, the “percentage decrease of blood pressure” value ([3]; 20 mg/kg, 80 min.) was 9.8% and the “percentage decrease of blood pressure” value ([3]; 20 mg/kg, 2 h.) was 5.8%. For the same compound, the “percentage decrease of blood pressure” value ([3]; 20 mg/kg, 4 h.) was -1.2%, the “percentage decrease of blood pressure” value ([3]; 20 mg/kg, 6 h.) was -0.5% and the “heart rate at time t” value ([4]; 20 mg/kg, 10 min.) was 503. For the same compound, the “heart rate at time t” value ([4]; 20 mg/kg, 20 min.) was 505, the “heart rate at time t” value ([4]; 20 mg/kg, 40 min.) was 482 and the “heart rate at time t” value ([4]; 20 mg/kg, 80 min.) was 481. The “heart rate at time t” value ([4]; 20 mg/kg, 2 h.) was 472, the “heart rate at time t” value ([4]; 20 mg/kg, 6 h.) was 491 and the “antiarrhythmic effectiveness, chloroform arrythmias (in words)” value (CHCl3 arrhythmia) was “no antiarrythmic effectiveness”. For the same compound, the “inhibition in % of CHCl3 arrhythmia” value (CHCl3 arrhythmia; 25 mg/kg) was 0%, the “antiarrhythmic effectiveness, aconitine-induced arrythmias (in words)” value [5] was “no antiarrythmic effectiveness” and the LD50 ([6]; ip) was 90 mg/kg. The LD50 ([6]; iv) was 14 mg/kg, the LD50 ([6]; po) was 360 mg/kg and the “toxicities compared (in words)” value (mice) was “almost the same”. The “properties influencing the central nervous system (in words)” value [7] was “no properties influencing the central nervous system”, the “heart rate at time t” value [8] was 499 and the “period of activity (in words)” value (circulatory disturbances) was “relatively short period of activity”.
With `CC[C@H]1CN2CCc3c([nH]c4ccccc34)[C@@H]2C[C@@H]1/C(=C\OC)C(=O)OC` [DHCN, dihydrocorynantheine] the “systolic blood pressure, subsequent value” [1, 15] was 187 ± 6 mm Hg, the “systolic blood pressure, Δ” value [1, 15] was -12.7 ± 7 mm Hg and the “systolic blood pressure, Δ %” value [1, 15] was -5.8 ± 3.3%. For the same compound, the “systolic blood pressure, subsequent value” [1, 16] was 187 ± 5 mm Hg, the “systolic blood pressure, Δ” value [1, 16] was -13 ± 9 mm Hg and the “systolic blood pressure, Δ %” value [1, 16] was -6.2 ± 4.0%. The “systolic blood pressure, subsequent value” [1, 17] was 181 ± 3 mm Hg, the “systolic blood pressure, Δ” value [1, 17] was -21 ± 5 mm Hg and the “systolic blood pressure, Δ %” value [1, 17] was -10.1 ± 2.1%. The “systolic blood pressure, subsequent value” [1, 18] was 175 ± 10 mm Hg, the “systolic blood pressure, Δ” value [1, 18] was -29 ± 8 mm Hg and the “systolic blood pressure, Δ %” value [1, 18] was -14.6 ± 4.1%. For the same compound, the “systolic blood pressure, subsequent value” [1, 19] was 152 ± 6 mm Hg, the “systolic blood pressure, Δ” value [1, 19] was -41 ± 5 mm Hg and the “systolic blood pressure, Δ %” value [1, 19] was -21.4 ± 2.7%. The “heart rate, subsequent value” [2, 15] was 485 ± 14 beats/min, the “heart rate, Δ” value [2, 15] was 6 ± 20 beats/min and the “heart rate, Δ %” value [2, 15] was 1.5 ± 4.2%. For the same compound, the “heart rate, subsequent value” [2, 16] was 442 ± 19 beats/min, the “heart rate, Δ” value [2, 16] was -30 ± 18 beats/min and the “heart rate, Δ %” value [2, 16] was -6.2 ± 3.7%. The “heart rate, subsequent value” [2, 17] was 492 ± 12 beats/min, the “heart rate, Δ %” value [2, 17] was -0.6 ± 2.9% and the “heart rate, subsequent value” [2, 18] was 477 ± 5 beats/min. The “heart rate, Δ” value [2, 18] was -16 ± 11 beats/min, the “heart rate, Δ %” value [2, 18] was -3.1 ± 2.2% and the “heart rate, subsequent value” [2, 19] was 502 ± 14 beats/min. The “heart rate, Δ” value [2, 19] was 3 ± 21 beats/min, the “heart rate, Δ %” value [2, 19] was 2.9% and the “percentage decrease of blood pressure” value ([3]; 10 mg/kg p.o., 10 min.) was 10.6%. For the same compound, the “percentage decrease of blood pressure” value ([3]; 10 mg/kg p.o., 20 min.) was 14.5%, the “percentage decrease of blood pressure” value ([3]; 10 mg/kg p.o., 40 min.) was 14.5% and the “percentage decrease of blood pressure” value ([3]; 10 mg/kg p.o., 80 min.) was 6.1%. For the same compound, the “percentage decrease of blood pressure” value ([3]; 10 mg/kg p.o., 2 h.) was 3.7%, the “percentage decrease of blood pressure” value ([3]; 10 mg/kg p.o., 4 h.) was 0.8% and the “percentage decrease of blood pressure” value ([3]; 10 mg/kg p.o., 6 h.) was 1.4%. For the same compound, the “blood pressure lowering action compared (in words)” value ([3]; DHCN 10 mg/kg vs THCN 5 mg/kg p.o.) was “the same action”, the “time of maximum blood pressure lowering” value ([3]; DHCN 10 mg/kg, THCN 5 mg/kg p.o.) was “about 40 minutes” and the “blood pressure after the maximum (in words)” value ([3]; DHCN 10 mg/kg, THCN 5 mg/kg p.o., after about 40 minutes) was “the blood pressure again increases to the initial value”. For the same compound, the “heart rate at time t” value ([4]; 10 mg/kg p.o., 10 min.) was 504, the “heart rate at time t” value ([4]; 10 mg/kg p.o., 20 min.) was 515 and the “heart rate at time t” value ([4]; 10 mg/kg p.o., 40 min.) was 500. For the same compound, the “heart rate at time t” value ([4]; 10 mg/kg p.o., 80 min.) was 516, the “heart rate at time t” value ([4]; 10 mg/kg p.o., 2 h.) was 521 and the “heart rate at time t” value ([4]; 10 mg/kg p.o., 4 h.) was 517. For the same compound, the “heart rate at time t” value ([4]; 10 mg/kg p.o., 6 h.) was 507, the “heart rate change (in words)” value ([4]; DHCN 10 mg/kg, THCN 10 mg/kg, on the border of statistical significance) was “an increase is to be observed” and the “inhibition in % of CHCl3 arrhythmia” value (CHCl3 arrhythmia; 10 mg/kg) was 0%. For the same compound, the “inhibition in % of CHCl3 arrhythmia” value (CHCl3 arrhythmia; 15 mg/kg) was 10%, the “inhibition in % of CHCl3 arrhythmia” value (CHCl3 arrhythmia; 25 mg/kg) was 80% and the LD50 ([6]; ip) was 98 mg/kg. The LD50 ([6]; iv) was 13 mg/kg, the LD50 ([6]; po) was 210 mg/kg and the “toxicities compared (in words)” value (mice) was “almost the same”. The “properties influencing the central nervous system (in words)” value [7] was “no properties influencing the central nervous system” and the “period and strength of activity compared with ajmalicine (in words)” value [9] was “greater than those of the known comparison compound ajmalicine”.
